Biological target: T1, SCD-1 (Homo sapiens, UniProt O00767)
T1 construct: addition of 125 μg of microsomal fraction of HepG2 cells; host or cells: HepG2 human hepatocarcinoma cells (microsomal fraction)
T1 sequence (O00767 1-359): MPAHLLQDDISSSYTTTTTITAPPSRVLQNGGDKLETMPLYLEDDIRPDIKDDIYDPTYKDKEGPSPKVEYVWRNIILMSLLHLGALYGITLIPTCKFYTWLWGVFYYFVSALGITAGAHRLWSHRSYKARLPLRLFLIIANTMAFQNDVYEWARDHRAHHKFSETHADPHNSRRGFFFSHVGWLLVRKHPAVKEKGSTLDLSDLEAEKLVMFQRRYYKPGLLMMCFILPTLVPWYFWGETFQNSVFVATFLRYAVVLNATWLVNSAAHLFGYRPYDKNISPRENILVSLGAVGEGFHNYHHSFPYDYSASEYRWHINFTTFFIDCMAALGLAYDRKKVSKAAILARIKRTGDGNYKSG
Assay: Human enzymatic activity of SCD-1 from microsomes of HepG2 cells (conversion of [14C] stearic acid to oleic acid, HPLC)
Type: biochemical
Conditions: microsomal fraction of HepG2 cells, 62 μM stearic acid, 20 minutes at 37° C., vs vehicle 0.1% DMSO; read-out: HSCD-1 (HEPG2) IC50
Procedure: In vitro: Human enzymatic activity of SCD-1 from microsomes of HepG2 cells after treatment with the inhibitor compounds (% inhibition).
HepG2 cells of human hepatocarcinoma (ATCC, HB-8065) are cultured at confluence then trypsinated. The cell residue is solubilized in 10 mM Tris buffer (pH 7.4) sucrose (250 mM) DTT (1 mM) then the cells are lysed by sonication. The microsomes are obtained after centrifuging at 10,000 g for 20 minutes at 4° C. followed by centifrugation of the supernatant at 100,000 g for 60 minutes at 4° C. The residue is solubilized in 10 mM Tris buffer (pH 7.4) sucrose (250 mM) at 4° C. and the microsomal proteins are assayed and stored at −196° C. (liquid nitrogen).
The enzymatic reaction measures the conversion of stearic acid (C18:0 fatty acid) into oleic acid (C18:1 fatty acid) by SCD-1. The enzymatic reaction is initiated by the addition of 125 μg of microsomal fraction of HepG2 cells to tubes (total reaction volume of 500 μl) containing 62 μM stearic acid (45 μM stearic acid and 17 μM [^14C] stearic acid) in 100 mM phosphate buffer (pH 7.16) with 7.2 mM ATP, 0.54 mM CoA, 6 mM MgCl2, 0.8 mM NADH and the inhibitor compound or vehicle (0.1% DMSO). The tubes are incubated for 20 minutes at 37° C. then the enzymatic reaction is halted by the addition of KOH (12%) and saponification for 30 minutes at 80° C. After acidification (3N HCl), the fatty acids are extracted twice with ethyl ether, evaporated under nitrogen before being solubilized in methanol/dichloromethane (3:1). The reaction product (C18:1) is separated from the reaction substrate (C18:0) by HPLC (Perkin Elmer, C18 reverse phase column) coupled with an in-line radioactivity detector (FlowOne). Enzymatic activity is measured in picomoles of stearic acid converted to oleic acid per minute and per mg of protein. For each inhibitor compound, an IC50 value is determined, compared with the reference enzymatic activity (vehicle 0.1% DMSO). Sterculic acid is the reference inhibitor compound (Gomez F. E., Bauman D. E., Ntambi J. M., Fox B. G. Effects of sterculic acid on stearoyl-CoA desaturase in differentiating […] adipocytes. Biochem Biophys Res Commun. 300 316-326 (2003).

| IC50 [nM] | SMILES |
| --- | --- |
| 100 to 1000 | Cn1nccc(NCC(=O)N2CCC(Oc3ccccc3C(F)(F)F)CC2)c1=O [Example 1, 2-Methyl-4-{2-oxo-2-[4-(2-trifluoromethyl-phenoxy)-piperidin-1-yl]-ethylamino}-2H-pyridazin-3-one] |
| 30 to 100 | Cn1nccc(NCC(=O)N2CCC(Oc3cc(F)ccc3C(F)(F)F)CC2)c1=O [Example 2, 4-{2-[4-(5-Fluoro-2-trifluoromethyl-phenoxy)-piperidin-1-yl]-2-oxo-ethylamino}-2-methyl-2H-pyridazin-3-one] |
| 3000 to 10000 | CN(CC(=O)N1CCC(Oc2ccccc2Cl)CC1)c1ccnn(C)c1=O [Example 18, 4-({2-[4-(2-Chloro-phenoxy)-piperidin-1-yl]-2-oxo-ethyl}-methyl-amino)-2-methyl-2H-pyridazin-3-one] |
| ~10000 | Cn1ncc(NCC(=O)N2CCC(Oc3cc(F)ccc3Cl)CC2)cc1=O [Example 20, 5-{2-[4-(2-Chloro-5-fluoro-phenoxy)-piperidin-1-yl]-2-oxo-ethylamino}-2-methyl-2H-pyridazin-3-one] |
| 300 | Cn1nccc(CCC(=O)N2CCC(Oc3cc(C(F)(F)F)ccc3Cl)CC2)c1=O [Example 37, 4-{3-[4-(2-Chloro-5-trifluoromethyl-phenoxy)-piperidin-1-yl]-3-oxo-propyl}-2-methyl-2H-pyridazin-3-one] |
| 10 to 100 | O=C(CNc1ccn[nH]c1=O)N1CCC(Oc2cc(Cl)ccc2Cl)CC1 [Example 41, 4-{2-[4-(2,5-dichloro-phenoxy)-piperidin-1-yl]-2-oxo-ethylamino}-2H-pyridazin-3-one] |
| 10 to 100 | O=C(CNc1ccn[nH]c1=O)N1CCC(Oc2cc(Br)ccc2Cl)CC1 [Example 42, 4-{2-[4-(5-Bromo-2-Chloro-phenoxy)-piperidin-1-yl]-2-oxo-ethylamino}-2H-pyridazin-3-one] |
| 10 to 100 | O=C(CNc1ccn[nH]c1=O)N1CCC(Oc2cc(F)c(F)cc2Br)CC1 [Example 43, 4-{2-[4-(2-Bromo-4,5-difluoro-phenoxy)-piperidin-1-yl]-2-oxo-ethylamino}-2H-pyridazin-3-one] |
| 100 to 1000 | O=C(CNc1ccn[nH]c1=O)N1CCC(Oc2cccc(C(F)(F)F)c2)CC1 [Example 44, 4-{2-[4-(3-trifluoromethyl-phenoxy)-piperidin-1-yl]-2-oxo-ethylamino}-2H-pyridazin-3-one] |
| 100 to 1000 | O=C(CNc1ccnn(CCCC(F)(F)F)c1=O)N1CCC(Oc2cc(C(F)(F)F)ccc2Cl)CC1 [Example 45, 4-{2-[4-(2-Chloro-5-trifluoromethyl-phenoxy)-piperidin-1-yl]-2-oxo-ethylamino}-2-(4,4,4-trifluoro-butyl)-2H-pyridazin-3-one] |
| 1000 | CC#CCn1nccc(NCC(=O)N2CCC(Oc3cc(C(F)(F)F)ccc3Cl)CC2)c1=O [Example 46, 2-But-2-ynyl-4-{2-[4-(2-chloro-5-trifluoromethyl-phenoxy)-piperidin-1-yl]-2-oxo-ethylamino}-2H-pyridazin-3-one] |
| 300 to 1000 | CC(C)CCCn1nccc(NCC(=O)N2CCC(Oc3cc(C(F)(F)F)ccc3Cl)CC2)c1=O [Example 47, 4-{2-[4-(2-Chloro-5-trifluoromethyl-phenoxy)-piperidin-1-yl]-2-oxo-ethylamino}-2-(4-methyl-pentyl)-2H-pyridazin-3-one] |
| 1000 to 10000 | O=C(CNc1ccnn(Cc2ccccc2)c1=O)N1CCC(Oc2ccccc2C(F)(F)F)CC1 [Example 48, 2-Benzyl-4-{2-oxo-2-[4-(2-trifluoromethyl-phenoxy)-piperidin-1-yl]-ethylamino}-2H-pyridazin-3-one] |
| 300 | CCCCCCCCC1=C(CCCCCCCC(=O)O)C1 [Sterculic acid, reference compound] |

Test system: not given
Assay: not given
Conditions: not given

| melting point [°C] | SMILES |
| --- | --- |
| 50 | Cn1nccc(NCC(=O)N2CCC(Oc3ccccc3C(F)(F)F)CC2)c1=O [Example 1, 2-Methyl-4-{2-oxo-2-[4-(2-trifluoromethyl-phenoxy)-piperidin-1-yl]-ethylamino}-2H-pyridazin-3-one] |
| 140 | Cn1nccc(NCC(=O)N2CCC(Oc3cc(F)ccc3C(F)(F)F)CC2)c1=O [Example 2, 4-{2-[4-(5-Fluoro-2-trifluoromethyl-phenoxy)-piperidin-1-yl]-2-oxo-ethylamino}-2-methyl-2H-pyridazin-3-one] |
| 160 | Cn1nccc(NCC(=O)N2CCC(Oc3cc(F)ccc3F)CC2)c1=O [Example 13, 4-{2-[4-(2,5-Difluoro-phenoxy)-piperidin-1-yl]-2-oxo-ethylamino}-2-methyl-2H-pyridazin-3-one] |
| 160 | Cn1nccc(NCC(=O)N2CCC(Oc3ccccc3[N+](=O)[O-])CC2)c1=O [Example 15, 2-Methyl-4-{2-[4-(2-nitro-phenoxy)-piperidin-1-yl]-2-oxo-ethylamino}-2H-pyridazin-3-one] |
| 245 to 260 | Cn1ncc(NCC(=O)N2CCC(Oc3ccccc3C(F)(F)F)CC2)cc1=O [Example 19, 2-Methyl-5-{2-oxo-2-[4-(2-trifluoromethyl-phenoxy)-piperidin-1-yl]-ethylamino}-2H-pyridazin-3-one] |
| 126 | Cn1nccc(OCC(=O)N2CCC(Oc3ccccc3OC(F)(F)F)CC2)c1=O [Example 21, 2-Methyl-4-{2-oxo-2-[4-(2-trifluoromethoxy-phenoxy)-piperidin-1-yl]-ethoxy}-2H-pyridazin-3-one] |
| 135 | Cn1nccc(OCC(=O)N2CCC(Oc3ccc(F)cc3Cl)CC2)c1=O [Example 22, 4-{2-[4-(2-Chloro-4-fluoro-phenoxy)-piperidin-1-yl]-2-oxo-ethoxy}-2-methyl-2H-pyridazin-3-one] |
| 192 | CC(=O)c1ccc(F)cc1OC1CCN(C(=O)COc2ccnn(C)c2=O)CC1 [Example 23, 4-{2-[4-(2-Acetyl-5-fluoro-phenoxy)-piperidin-1-yl]-2-oxo-ethoxy}-2-methyl-2H-pyridazin-3-one] |
| 140 | Cn1ncc(OCC(=O)N2CCC(Oc3ccc(Cl)cc3Cl)CC2)cc1=O [Example 26, 5-{2-[4-(2,4-Dichloro-phenoxy)-piperidin-1-yl]-2-oxo-ethoxy}-2-methyl-2H-pyridazin-3-one] |
| 155 | CN(Cc1ccc(Cl)c(Cl)c1)C1CCN(C(=O)CNc2ccnn(C)c2=O)CC1 [Example 28, 4-(2-{4-[(3,4-Dichloro-benzyl)-methyl-amino]-piperidin-1-yl}-2-oxo-ethylamino)-2-methyl-2H-pyridazin-3-one] |
| 210 | Cn1nccc(NCC(=O)N2CCN(C(=O)c3cc(F)ccc3C(F)(F)F)CC2)c1=O [Example 29, 4-{2-[4-(5-Fluoro-2-trifluoromethyl-benzoyl)-piperazin-1-yl]-2-oxo-ethylamino}-2-methyl-2H-pyridazin-3-one] |
| 170 | Cn1nccc(NCC(=O)N2CCN(C(=O)c3ccccc3C(F)(F)F)CC2)c1=O [Example 30, 2-Methyl-4-{2-oxo-2-[4-(2-trifluoromethyl-benzoyl)-piperazin-1-yl]-ethylamino}-2H-pyridazin-3-one] |
| 174 | Cn1nccc(NCC(=O)N2CC(COc3cc(C(F)(F)F)ccc3Cl)C2)c1=O [Example 33, 4-{2-[3-(2-Chloro-5-trifluoromethyl-phenoxymethyl)-azetidin-1-yl]-2-oxo-ethylamino}-2-methyl-2H-pyridazin-3-one] |
| 70 | C[C@@H](Nc1ccnn(C)c1=O)C(=O)N1CCC(Oc2cc(C(F)(F)F)ccc2Cl)CC1 [Example 38, 4-{(R)-2-[4-(2-Chloro-5-trifluoromethyl-phenoxy)-piperidin-1-yl]-1-methyl-2-oxo-ethylamino}-2-methyl-2H-pyridazin-3-one] |
| 70 | C[C@H](Nc1ccnn(C)c1=O)C(=O)N1CCC(Oc2cc(C(F)(F)F)ccc2Cl)CC1 [Example 39, 4-{(S)-2-[4-(2-Chloro-5-trifluoromethyl-phenoxy)-piperidin-1-yl]-1-methyl-2-oxo-ethylamino}-2-methyl-2H-pyridazin-3-one] |
| 180 | CC(C)n1nccc(NCC(=O)N2CCC(Oc3ccccc3C(F)(F)F)CC2)c1=O [Example 49, 2-Isopropyl-4-{2-oxo-2-[4-(2-trifluoromethyl-phenoxy)-piperidin-1-yl]-ethylamino}-2H-pyridazin-3-one] |
| 82 | CCCCn1nccc(NCC(=O)N2CCC(Oc3ccccc3Cl)CC2)c1=O [Example 50, 2-Butyl-4-{2-[4-(2-chloro-phenoxy)-piperidin-1-yl]-2-oxo-ethylamino}-2H-pyridazin-3-one] |

Source: US8946225B2, “Derivatives of 2H pyridazin-3-ones, their preparation and their use as SCD-1 inhibitors” (Pierre Fabre Medicament, priority 2009, dated 2015)
